For this assay, the system named is T1, chlorpyrifos hydrolase (CPH).
T1 construct: native enzyme purified from mycelial cell extract; N-terminal MEPDGELSALTQGANS; gene not cloned
The assay is classed as biochemical, Cladosporium cladosporioides.

SMILES strings stand for the structures.

What is called Km is the concentration of substrate that gives half-maximal velocity. Take `COP(N)(=O)SC` (centres unmarked) [Methamidophos]: the Km is 31.8 ± 1.7 µM. Next, `CCOP(=S)(OCC)Oc1ccc([N+](=O)[O-])cc1` [Parathion]: 9.8 ± 0.3 µM; `COP(=S)(OC)Oc1ccc([N+](=O)[O-])cc1` [Methyl parathion]: 12.5 ± 1.4 µM. Regarding `CCOP(=S)(OCC)Oc1nc(Cl)c(Cl)cc1Cl` [Chlorpyrifos, O, O-diethyl O-(3,5,6-trichloro-2-pyridyl) phosphorothioate], the Km was determined as 6.8 ± 0.4 µM. To `CCOC(=O)CC(SP(=S)(OC)OC)C(=O)OCC` (centres unmarked) [Malathion] belongs 44.4 ± 2.1 µM.

These data come from publication PMC3367910 (PLoS ONE, 2012).
